From patent US6177592A, “Compounds” (priority 1997, dated 2001)

Tests used:
RAW264.7 cells = experiment: Inhibition of LPS-caused cell damage in RAW264.7; format: cell-based, mouse; conditions: RAW 264.7
Experimental: Inhibition activity of GM to NO production and to cell damage was measured as follows using mouse macrophage cell strain RAW264.7 cells (ATCC TIB 71) and LPS.
Dulbecco-modified Eagle's medium (manufactured by Life Technologies Oriental; 11054-020) containing 2 mM of L-glutamine (manufactured by Life Technologies Oriental; 25030-149) containing no Phenol Red containing 5 ml of 10% fetal calf serum (manufactured by Gibco) containing 1.5×10^6 cells of RAW 264.7 was incubated in a six-well tissue culture plate in the presence of 5% carbon dioxide gas at 37° C. for 12 hours, 50μl of 50μg/ml LPS (manufactured by Sigma; L-2012) was added, then each 50 μl of 250 )i M Mn or 100 μH GM was added to each well, incubation was further continued for additional 12 hours and, after that, NO2^- produced by oxidation of NO in the medium and amount of viable cell numbers were measured. Incidentally, a sect-Lon where no LPS was added and a section where no GM was added were prepared as controls.

topoisomerase I = target: T1, topoisomerase I (Homo sapiens, UniProt P11387); experiment: Topoisomerase I inhibition; format: biochemical; conditions: 1 mM GM
T1 construct: pBR322 supercoil relaxation assay
Experimental: (2) Activity of GM for inhibiting the topoisomerase I was measured by the same method as in Example 17-(1) except that topoisomerase I [manufacturedby TopoGEN, 0.01 unit/y 1] was used instead of topoisomerase II; and 100 mM Tris-HCl (pH 7.9), 10 mM EDTA, 1 mM spermidine and 50% glycerol were used as a buffer with a ten-fold diluted concentration. Incidentally, as a sample, GM was added to make the final concentration 1 mM.

topoisomerase II = target: T2, topoisomerase II (Homo sapiens, UniProt P11388); experiment: Topoisomerase II inhibition (pBR322 relaxation); format: biochemical; design: key to Inhibiting Activity: -: a complete change from a supercoiled type to a relaxation type; +: a change in a medium degree; ++: most of supercoiled type remained; +++: there was no decrease in a supercoiled type at all
T2 construct: purchased TopoGEN
Experimental: (1) One μl of 0.25 μg/μl pBR322 DNA (manufactured by Takara Shuzo) was added to a mixture of 2 μl of topoisomerase II (manufactured by TopoGEN, 2 units/μl), 2 μl of a buffer with a ten-fold diluted concentration [0.5M Tris-HCl (pH 8.0), 1.2M KCl, 0.1M MgCl2, 5 mM adenosine triphosphate and 5 mM dithiothreitol], 2 μl of 0.1% bovine serum albumin (manufactured by Takara Shuzo), 11 μl of distilled water and 2 μl of distilled water (a control) or a sample (50, 100, 200, 500, 1000 or 2500 μM of GM) and made to react at 37° C. After the reaction for 30 minutes, the reaction was stopped by adding 2 μl aqueous solution of 1% sodium dodecylsulfate, 50% glycerol and 0.02% Bromophenol Blue.
The above reaction solution (20 μl) was applied to 1% agarose gel prepared from agarose L03 (manufactured by Takara Shuzo) and TAE buffer [40 mM Tris, 5 mM sodium acetate and 1 mM disodium ethylenediaminetetraacetate (EDTA); adjusted to pH 7.8 with acetic acid] and electrophoresis was conducted in the TAE buffer. After the electrophoresis, the gel was dipped in an aqueous solution of 1 μg/ml ethidium bromide and irradiated with ultraviolet ray to observe the electrophoretic pattern of DNA.

NIH 3T3 = experiment: Colony formation of NIH 3T3 cells; format: cell-based; conditions: 5 μM GM, nine days; control 91.7 ± 11.9
Experimental: NIH 3T3 cells were incubated at 37° C. under the condition of 5% CO2 in a Dulbecco-modified Eagle's medium containing 10% of calf serum.
(2) NIH 3T3 cells, the cells strains into which control vector was introduced and the cell strains into which E7 was introduced were made to grow to an extent of 50-70% confluence in a Dulbecco-modified Eagle's medium containing 10% of calf serum using a 100 mm-tissue culture plate and washed with PBS and the cells were peeled off with a 0.25% trypsin-EDTA solution and suspended in 5 ml of Dulbecco-modified Eagle's medium containing 10% of calf serum.
A part of the suspension was taken out and cell density was counted by a Neubauer's hemocytometer. Based upon the resulting data, it was diluted with a Dulbecco-modified Eagle's medium containing 10% of calf serum and planted on a tissue culture plate having a diameter of 60 mm to make 200 cells/plate and incubation was started in 3 ml of the medium. After 24 hours from the initiation of the incubation, GM was added thereto to make its concentration 5 μM. After additional 24 hours, the medium was exchanged with a fresh one and GM was added thereto to make its concentration 5 μM.
After that, the medium was exchanged with a fresh one every two to three days followed by adding GM thereto to make its concentration 5 μM. […]

[1] = tested on: sensitivity reaction of a delayed type; experiment: Delayed type hypersensitivity (ovine erythrocyte, pedal edema); format: in vivo, mouse (C57BL/6); conditions: 30 and 300 mg/kg i.p., three days
Experimental: C57BL/6 mice (female, five weeks age, body weight about 20 g) were purchased from Nippon SLC and used for the experiment after a preliminary breeding for one week at our end. Ovine erythrocyte (manufactured by Shimizu Jikken Zairyo) which is an antigen provoking the sensitivity reaction of a delayed type was washed three times with a physiological saline solution (manufactured by Otsuka Pharmaceutical) to make […] and 203 μl of it was intraperitoneally injected to mice to subject to an antigen sensitization.
After five days from the sensitization, 40 μl of antigen which was prepared by the same manner was injected to right paw to induce an antigen whereby pedal edema was provoked. From the antigen-sensitized date, GM was intraperitoneally administered to mice (one group consisting of five mice) once daily at the dose of 30 mg/kg or 300 mg/kg for three days.
After two days from the antigen induction, volume of right paw of the mice was measured by a measuring device for pedal edema (manufactured by Ugo Basile) and used as an index for the sensitivity reaction of a delayed type. The measured value was given by calculating the increasing rate from the right paw volume of the mice measured before the antigen induction.

T2 sequence (P11388 whole entry): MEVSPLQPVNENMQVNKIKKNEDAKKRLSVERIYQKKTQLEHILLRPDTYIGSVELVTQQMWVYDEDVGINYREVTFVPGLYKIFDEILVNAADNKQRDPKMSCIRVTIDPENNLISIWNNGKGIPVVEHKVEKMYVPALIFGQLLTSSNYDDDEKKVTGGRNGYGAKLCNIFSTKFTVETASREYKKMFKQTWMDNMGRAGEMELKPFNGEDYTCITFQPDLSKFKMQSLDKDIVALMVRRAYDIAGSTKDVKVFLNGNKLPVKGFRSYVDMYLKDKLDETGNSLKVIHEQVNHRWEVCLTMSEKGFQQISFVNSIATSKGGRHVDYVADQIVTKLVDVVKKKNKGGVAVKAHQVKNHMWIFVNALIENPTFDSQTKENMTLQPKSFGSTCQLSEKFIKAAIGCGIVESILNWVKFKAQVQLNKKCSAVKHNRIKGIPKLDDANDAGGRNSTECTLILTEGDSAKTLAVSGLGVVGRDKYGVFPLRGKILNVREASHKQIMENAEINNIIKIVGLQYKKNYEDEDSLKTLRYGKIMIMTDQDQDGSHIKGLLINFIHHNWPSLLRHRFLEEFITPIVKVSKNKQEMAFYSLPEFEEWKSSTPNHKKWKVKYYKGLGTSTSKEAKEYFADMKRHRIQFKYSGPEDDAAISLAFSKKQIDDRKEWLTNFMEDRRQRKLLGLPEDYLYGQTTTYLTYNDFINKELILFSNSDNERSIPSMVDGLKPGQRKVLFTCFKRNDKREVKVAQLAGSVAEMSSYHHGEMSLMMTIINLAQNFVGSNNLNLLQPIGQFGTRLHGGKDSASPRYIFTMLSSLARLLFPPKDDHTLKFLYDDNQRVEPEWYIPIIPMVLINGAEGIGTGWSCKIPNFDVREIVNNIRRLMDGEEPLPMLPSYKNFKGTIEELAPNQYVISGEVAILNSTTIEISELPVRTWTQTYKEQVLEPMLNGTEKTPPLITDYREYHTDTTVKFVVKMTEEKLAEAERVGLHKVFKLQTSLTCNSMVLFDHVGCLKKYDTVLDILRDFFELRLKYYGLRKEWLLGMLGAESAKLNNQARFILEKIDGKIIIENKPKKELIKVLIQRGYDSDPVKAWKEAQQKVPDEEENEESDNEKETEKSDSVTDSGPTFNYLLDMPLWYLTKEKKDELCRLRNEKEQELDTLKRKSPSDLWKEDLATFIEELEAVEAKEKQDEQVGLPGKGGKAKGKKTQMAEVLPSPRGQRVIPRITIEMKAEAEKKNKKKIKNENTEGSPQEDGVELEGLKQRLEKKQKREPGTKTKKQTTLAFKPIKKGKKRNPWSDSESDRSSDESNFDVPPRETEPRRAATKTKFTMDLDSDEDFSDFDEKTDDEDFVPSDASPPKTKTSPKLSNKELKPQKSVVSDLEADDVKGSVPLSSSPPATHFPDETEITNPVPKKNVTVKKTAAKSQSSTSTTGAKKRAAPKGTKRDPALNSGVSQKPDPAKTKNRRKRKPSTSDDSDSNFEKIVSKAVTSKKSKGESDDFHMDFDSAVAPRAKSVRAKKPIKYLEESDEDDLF
T1 sequence (P11387 whole entry): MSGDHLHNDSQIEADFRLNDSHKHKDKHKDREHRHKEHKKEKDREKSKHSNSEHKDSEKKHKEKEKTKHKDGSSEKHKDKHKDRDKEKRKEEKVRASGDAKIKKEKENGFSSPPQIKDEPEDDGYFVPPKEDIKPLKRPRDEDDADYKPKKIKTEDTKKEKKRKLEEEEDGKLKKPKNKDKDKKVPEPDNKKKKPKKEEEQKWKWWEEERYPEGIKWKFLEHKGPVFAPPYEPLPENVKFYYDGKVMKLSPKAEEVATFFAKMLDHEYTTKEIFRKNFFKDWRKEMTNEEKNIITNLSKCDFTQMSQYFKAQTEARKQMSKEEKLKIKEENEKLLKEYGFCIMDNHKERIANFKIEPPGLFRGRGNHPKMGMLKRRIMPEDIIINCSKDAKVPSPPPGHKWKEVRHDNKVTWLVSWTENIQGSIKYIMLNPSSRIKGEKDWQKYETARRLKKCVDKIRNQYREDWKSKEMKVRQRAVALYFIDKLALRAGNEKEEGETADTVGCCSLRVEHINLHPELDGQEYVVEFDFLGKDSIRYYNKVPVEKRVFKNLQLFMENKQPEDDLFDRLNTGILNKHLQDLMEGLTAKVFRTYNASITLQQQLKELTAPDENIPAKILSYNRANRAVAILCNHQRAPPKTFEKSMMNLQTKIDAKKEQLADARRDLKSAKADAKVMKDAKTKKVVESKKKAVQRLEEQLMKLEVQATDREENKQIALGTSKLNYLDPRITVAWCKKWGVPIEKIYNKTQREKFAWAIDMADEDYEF

N[C@@H](CCC(=O)N[C@@H](CSC1C=C(O)C(=O)C1)C(=O)NCC(=O)O)C(=O)O (some centres unmarked) [GM, 2-hydroxy-4-glutathion-S-yl-2-cyclopenten-1-one]
inhibition of cell damage caused by LPS (RAW264.7 cells): inhibited the cell damage in RAW 264.7 cells caused by LPS
inhibition of topoisomerase I (topoisomerase I): topoisomerase I was inhibited by 1 mM GM
concentration at which change of DNA to relaxation type was partially or completely inhibited (topoisomerase II): ≥ 10 µM
Inhibiting Activity (topoisomerase II; 5 μM): -
Inhibiting Activity (topoisomerase II; 10 μM): +
Inhibiting Activity (topoisomerase II; 20 μM): ++
Inhibiting Activity (topoisomerase II; 50 μM): ++
Inhibiting Activity (topoisomerase II; 100 μM): +++
Inhibiting Activity (topoisomerase II; 250 μM): +++
Numbers of Colonies (Mean Value ± SD) (NIH 3T3): 79.0 ± 2.6
inhibiting action to a sensitivity reaction of a delayed type [1]: significant inhibiting action to a sensitivity reaction of a delayed type
